Common to all, as to assay: relative viability (nuclei count vs DMSO), 5 days (fraction); higher = more cells survive
Compound in the test “Sulindac + OSI-027”: CC1=C(CC(=O)O)c2cc(F)ccc2/C1=C\c1ccc([S+](C)[O-])cc1 [Sulindac] + COc1cccc2cc(-c3nc([C@H]4CC[C@H](C(=O)O)CC4)n4ncnc(N)c34)[nH]c12 [OSI-027] (partner 0.5 µM)
In short, it runs like this: (§1)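 Lung cancer cell lines were pin-tool dosed in 1536-well plates on the day after seeding, with either a lone drug or a fixed anchor-drug dose plus five library-drug doses (not always all listed) in √10 steps. Nuclei were counted on 4× images after 5 days. Relative viability is the ratio of treated-well to vehicle-well nuclei counts, with each value a median of duplicate plates.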

Compound in test [1]: CN[C@@H]1C[C@H]2O[C@@](C)([C@@H]1OC)n1c3ccccc3c3c4c(c5c6ccccc6n2c5c31)C(=O)NC4 [Staurosporine] + CC(C)C[C@H](NC(=O)[C@H](Cc1ccccc1)NC(=O)c1cnccn1)B(O)O [Bortezomib] (partner 0.002 µM)
A digest of the protocol: as §1

Compound in the test “Sulindac + Phenformin”: CC1=C(CC(=O)O)c2cc(F)ccc2/C1=C\c1ccc([S+](C)[O-])cc1 [Sulindac] + N=C(N)NC(=N)NCCc1ccccc1 [Phenformin] (partner 250 µM)
In short, it runs like this: as §1

Compound in test [2]: O=c1[nH]cc(F)c(=O)[nH]1 [5-Fluorouracil] + CC(C)C[C@H](NC(=O)[C@H](Cc1ccccc1)NC(=O)c1cnccn1)B(O)O [Bortezomib] (partner 0.002 µM)
A digest of the protocol:
as §1

On to NCI-H2405, for which the relative viability with Sulindac + OSI-027 (first compound 0.08 µM) is 0.664; in the test with Sulindac + OSI-027 (first compound 0.253 µM), 0.711; with Sulindac + OSI-027 (first compound 0.8 µM), 0.736; in the test with Sulindac + OSI-027 (first compound 2.53 µM) it was 0.602; with Sulindac + OSI-027 (first compound 8 µM), 0.685; in test [1] (first compound 0.005 µM), 0.314. The relative viability in test [1] (first compound 0.01581 µM) stood at 0.165; in test [1] (first compound 0.05 µM), 0.188; in test [1] (first compound 0.1581 µM), 0.163; in test [1] (first compound 0.5 µM), 0.134; in the test with Sulindac + Phenformin (first compound 0.08 µM), 0.395; with Sulindac + Phenformin (first compound 0.253 µM), 0.455. Also, the relative viability with Sulindac + Phenformin (first compound 0.8 µM) worked out at 0.505; with Sulindac + Phenformin (first compound 2.53 µM), 0.389; with Sulindac + Phenformin (first compound 8 µM), 0.465; in test [2] (first compound 0.02 µM), 0.943; in test [2] (first compound 0.2 µM) it was 1.02; in test [2] (first compound 0.6325 µM), 0.96. Also, the relative viability in test [2] (first compound 2 µM) came out at 0.681.
As to NCI-H3122, the relative viability with Sulindac + OSI-027 (first compound 0.08 µM) was determined as 1.07; with Sulindac + OSI-027 (first compound 0.253 µM), 1.02; with Sulindac + OSI-027 (first compound 0.8 µM), 0.864; in the test with Sulindac + OSI-027 (first compound 2.53 µM), 0.937; with Sulindac + OSI-027 (first compound 8 µM), 1.13; in test [1] (first compound 0.005 µM), 1.04. Also, the relative viability in test [1] (first compound 0.01581 µM) is 0.355; in test [1] (first compound 0.05 µM) it was 0.947; in test [1] (first compound 0.1581 µM) it was 0.821; in test [1] (first compound 0.5 µM), 0.362; with Sulindac + Phenformin (first compound 0.08 µM), 0.384; in the test with Sulindac + Phenformin (first compound 0.253 µM), 0.37. Further, the relative viability was 0.626 with Sulindac + Phenformin (first compound 0.8 µM); 0.325 with Sulindac + Phenformin (first compound 2.53 µM); 0.413 with Sulindac + Phenformin (first compound 8 µM); 0.998 in test [2] (first compound 0.02 µM); 0.897 in test [2] (first compound 0.2 µM); 0.353 in test [2] (first compound 0.6325 µM). Also, the relative viability in test [2] (first compound 2 µM) came out at 0.298.
For the cell line PC-3 [JPC-3], the relative viability came out at 0.715 with Sulindac + OSI-027 (first compound 0.08 µM); 0.797 with Sulindac + OSI-027 (first compound 0.253 µM); 0.614 with Sulindac + OSI-027 (first compound 0.8 µM); 0.752 with Sulindac + OSI-027 (first compound 2.53 µM); 0.728 with Sulindac + OSI-027 (first compound 8 µM); 0.866 in test [1] (first compound 0.005 µM). Besides, the relative viability in test [1] (first compound 0.05 µM) was determined as 0.511; in test [1] (first compound 0.1581 µM), 0.275; in test [1] (first compound 0.5 µM), 0.316; with Sulindac + Phenformin (first compound 0.08 µM) it was 0.475; with Sulindac + Phenformin (first compound 0.253 µM) it was 0.494; in the test with Sulindac + Phenformin (first compound 0.8 µM), 0.657. Further, the relative viability was found to be 0.458 with Sulindac + Phenformin (first compound 2.53 µM); 0.548 in the test with Sulindac + Phenformin (first compound 8 µM); 0.841 in test [2] (first compound 0.02 µM); 0.84 in test [2] (first compound 0.2 µM); 0.762 in test [2] (first compound 0.6325 µM); 0.643 in test [2] (first compound 2 µM).
As to PC-14, the relative viability with Sulindac + OSI-027 (first compound 0.08 µM) is 1.3; in the test with Sulindac + OSI-027 (first compound 0.253 µM) it was 1.2; with Sulindac + OSI-027 (first compound 2.53 µM) it was 0.886; with Sulindac + OSI-027 (first compound 8 µM), 1.09; in test [1] (first compound 0.005 µM), 0.838; in test [1] (first compound 0.01581 µM), 0.428. The relative viability in test [1] (first compound 0.05 µM) was 0.293; in test [1] (first compound 0.1581 µM), 0.0723; in test [1] (first compound 0.5 µM), 0.065; with Sulindac + Phenformin (first compound 0.08 µM) it was 0.571; with Sulindac + Phenformin (first compound 0.253 µM), 0.403; in the test with Sulindac + Phenformin (first compound 0.8 µM), 0.403. The relative viability is 0.537 with Sulindac + Phenformin (first compound 2.53 µM); 0.853 in the test with Sulindac + Phenformin (first compound 8 µM); 0.876 in test [2] (first compound 0.02 µM); 0.897 in test [2] (first compound 0.2 µM); 0.818 in test [2] (first compound 0.6325 µM); 0.516 in test [2] (first compound 2 µM).
RERF-LC-KJ: the relative viability with Sulindac + OSI-027 (first compound 0.08 µM) came out at 0.681; with Sulindac + OSI-027 (first compound 0.253 µM) it was 0.671; with Sulindac + OSI-027 (first compound 0.8 µM), 0.551; with Sulindac + OSI-027 (first compound 2.53 µM), 0.569; with Sulindac + OSI-027 (first compound 8 µM), 0.587; in test [1] (first compound 0.005 µM), 1.15. Further, the relative viability was determined as 0.926 in test [1] (first compound 0.01581 µM); 0.674 in test [1] (first compound 0.05 µM); 0.322 in test [1] (first compound 0.1581 µM); 0.242 in test [1] (first compound 0.5 µM); 0.43 with Sulindac + Phenformin (first compound 0.08 µM); 0.418 with Sulindac + Phenformin (first compound 0.253 µM). The relative viability with Sulindac + Phenformin (first compound 0.8 µM) was 0.414; with Sulindac + Phenformin (first compound 2.53 µM) it was 0.455; with Sulindac + Phenformin (first compound 8 µM), 0.45; in test [2] (first compound 0.02 µM) it was 1.24; in test [2] (first compound 0.2 µM), 1.17; in test [2] (first compound 0.6325 µM) it was 1.14. Besides, the relative viability in test [2] (first compound 2 µM) worked out at 0.939.
For the cell line SK-LU-1, the relative viability with Sulindac + OSI-027 (first compound 0.08 µM) was determined as 0.305; with Sulindac + OSI-027 (first compound 0.253 µM) it was 0.343; with Sulindac + OSI-027 (first compound 0.8 µM), 0.295; with Sulindac + OSI-027 (first compound 2.53 µM), 0.316; with Sulindac + OSI-027 (first compound 8 µM) it was 0.351; in test [1] (first compound 0.005 µM), 0.906. The relative viability in test [1] (first compound 0.05 µM) is 0.255; in test [1] (first compound 0.1581 µM), 0.2; in test [1] (first compound 0.5 µM), 0.179; with Sulindac + Phenformin (first compound 0.08 µM) it was 0.498; with Sulindac + Phenformin (first compound 0.253 µM), 0.567; in the test with Sulindac + Phenformin (first compound 0.8 µM), 0.444. Moreover, the relative viability stood at 0.444 in the test with Sulindac + Phenformin (first compound 2.53 µM); 0.668 with Sulindac + Phenformin (first compound 8 µM); 1.12 in test [2] (first compound 0.02 µM); 1.34 in test [2] (first compound 0.2 µM); 1.18 in test [2] (first compound 0.6325 µM); 0.981 in test [2] (first compound 2 µM).
Regarding SW 1573, the relative viability with Sulindac + OSI-027 (first compound 0.08 µM) is 0.722; in the test with Sulindac + OSI-027 (first compound 0.253 µM) it was 0.676; with Sulindac + OSI-027 (first compound 2.53 µM), 0.699; in the test with Sulindac + OSI-027 (first compound 8 µM), 0.578; in test [1] (first compound 0.005 µM) it was 0.712; in test [1] (first compound 0.01581 µM), 0.444. In addition, the relative viability in test [1] (first compound 0.05 µM) came out at 0.192; in test [1] (first compound 0.1581 µM), 0.101; in test [1] (first compound 0.5 µM) it was 0.0911; with Sulindac + Phenformin (first compound 0.08 µM) it was 0.458; with Sulindac + Phenformin (first compound 0.253 µM), 0.365; with Sulindac + Phenformin (first compound 2.53 µM) it was 0.388. For the same cell line, the relative viability came to 0.509 with Sulindac + Phenformin (first compound 8 µM); 1.08 in test [2] (first compound 0.02 µM); 1.1 in test [2] (first compound 0.2 µM); 0.922 in test [2] (first compound 0.6325 µM); 0.638 in test [2] (first compound 2 µM).

These data come from the supplement of paper PMC10307832.
